Laboratory results published in PubChem BioAssay (NCI).
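Cells were grown in 96-well plates and exposed to each compound for 48 hours at five concentrations; endpoints were interpolated linearly between bracketing concentrations, or set to the highest concentration if not reached. TGI: total growth inhibition.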

Assays:
Test in all cases: DTP human tumour cell line panel, 48 h
786-0 renal = tested on: 786-0 renal
A498 renal = tested on: A498 renal
A549 NSCLC = tested on: A549 NSCLC
ACHN renal = tested on: ACHN renal
BT-549 breast = tested on: BT-549 breast
CAKI-1 renal = tested on: CAKI-1 renal
CCRF-CEM leukemia = tested on: CCRF-CEM leukemia
COLO 205 colon = tested on: COLO 205 colon
DU-145 prostate = tested on: DU-145 prostate
EKVX NSCLC = tested on: EKVX NSCLC
HCC-2998 colon = tested on: HCC-2998 colon
HCT-116 colon = tested on: HCT-116 colon
HCT-15 colon = tested on: HCT-15 colon
HL-60(TB) leukemia = tested on: HL-60(TB) leukemia
HOP-62 NSCLC = tested on: HOP-62 NSCLC
HOP-92 NSCLC = tested on: HOP-92 NSCLC
HS 578T breast = tested on: HS 578T breast
HT29 colon = tested on: HT29 colon
IGROV1 ovarian = tested on: IGROV1 ovarian
K-562 leukemia = tested on: K-562 leukemia
KM12 colon = tested on: KM12 colon
LOX IMVI melanoma = tested on: LOX IMVI melanoma
M14 melanoma = tested on: M14 melanoma
MALME-3M melanoma = tested on: MALME-3M melanoma
MCF7 breast = tested on: MCF7 breast
MDA-MB-231 breast = tested on: MDA-MB-231 breast
MDA-MB-435 = tested on: MDA-MB-435
MDA-N = tested on: MDA-N
MOLT-4 leukemia = tested on: MOLT-4 leukemia
NCI-H226 lung = tested on: NCI-H226 lung
NCI-H23 lung = tested on: NCI-H23 lung
NCI-H460 lung = tested on: NCI-H460 lung
NCI-H522 lung = tested on: NCI-H522 lung
NCI/ADR-RES ovarian = tested on: NCI/ADR-RES ovarian
OVCAR-3 ovarian = tested on: OVCAR-3 ovarian
OVCAR-4 ovarian = tested on: OVCAR-4 ovarian
OVCAR-5 ovarian = tested on: OVCAR-5 ovarian
OVCAR-8 ovarian = tested on: OVCAR-8 ovarian
PC-3 prostate = tested on: PC-3 prostate
RPMI-8226 leukemia = tested on: RPMI-8226 leukemia
RXF 393 renal = tested on: RXF 393 renal
SF-268 CNS = tested on: SF-268 CNS
SF-295 CNS = tested on: SF-295 CNS
SF-539 CNS = tested on: SF-539 CNS
SK-MEL-2 melanoma = tested on: SK-MEL-2 melanoma
SK-MEL-28 melanoma = tested on: SK-MEL-28 melanoma
SK-MEL-5 melanoma = tested on: SK-MEL-5 melanoma
SK-OV-3 ovarian = tested on: SK-OV-3 ovarian
SN12C renal = tested on: SN12C renal
SNB-19 CNS = tested on: SNB-19 CNS
SNB-75 CNS = tested on: SNB-75 CNS
SR leukemia = tested on: SR leukemia
SW-620 colon = tested on: SW-620 colon
T-47D breast = tested on: T-47D breast
TK-10 renal = tested on: TK-10 renal
U251 CNS = tested on: U251 CNS
UACC-257 melanoma = tested on: UACC-257 melanoma
UACC-62 melanoma = tested on: UACC-62 melanoma

Q: Which results are given for `O=c1c2cccnc2[nH]c2ccc3[nH]ncc3c12`?
A: TGI (786-0 renal): > 10 µM; TGI (A498 renal): > 10 µM; TGI (A549 NSCLC): > 10 µM; TGI (ACHN renal): > 10 µM; TGI (BT-549 breast): > 10 µM; TGI (CAKI-1 renal): > 10 µM; TGI (CCRF-CEM leukemia): > 10 µM; TGI (COLO 205 colon): > 10 µM; TGI (DU-145 prostate): > 10 µM; TGI (EKVX NSCLC): > 10 µM; TGI (HCC-2998 colon): > 10 µM; TGI (HCT-116 colon): > 10 µM; TGI (HCT-15 colon): > 10 µM; TGI (HL-60(TB) leukemia): > 10 µM; TGI (HOP-62 NSCLC): > 10 µM; TGI (HOP-92 NSCLC): > 10 µM; TGI (HS 578T breast): > 10 µM; TGI (HT29 colon): > 10 µM; TGI (IGROV1 ovarian): > 10 µM; TGI (K-562 leukemia): > 10 µM; TGI (KM12 colon): > 10 µM; TGI (LOX IMVI melanoma): > 10 µM; TGI (M14 melanoma): > 10 µM; TGI (MALME-3M melanoma): > 10 µM; TGI (MCF7 breast): > 10 µM; TGI (MDA-MB-231 breast): > 10 µM; TGI (MDA-MB-435): > 10 µM; TGI (MDA-N): > 10 µM; TGI (MOLT-4 leukemia): > 10 µM; TGI (NCI-H226 lung): > 10 µM; TGI (NCI-H23 lung): > 10 µM; TGI (NCI-H460 lung): > 10 µM; TGI (NCI-H522 lung): > 10 µM; TGI (NCI/ADR-RES ovarian): > 10 µM; TGI (OVCAR-3 ovarian): > 10 µM; TGI (OVCAR-4 ovarian): > 10 µM; TGI (OVCAR-5 ovarian): > 10 µM; TGI (OVCAR-8 ovarian): > 10 µM; TGI (PC-3 prostate): > 10 µM; TGI (RPMI-8226 leukemia): > 10 µM; TGI (RXF 393 renal): > 10 µM; TGI (SF-268 CNS): > 10 µM; TGI (SF-295 CNS): > 10 µM; TGI (SF-539 CNS): > 10 µM; TGI (SK-MEL-2 melanoma): > 10 µM; TGI (SK-MEL-28 melanoma): > 10 µM; TGI (SK-MEL-5 melanoma): > 10 µM; TGI (SK-OV-3 ovarian): > 10 µM; TGI (SN12C renal): > 10 µM; TGI (SNB-19 CNS): > 10 µM; TGI (SNB-75 CNS): > 10 µM; TGI (SR leukemia): > 10 µM; TGI (SW-620 colon): > 10 µM; TGI (T-47D breast): > 10 µM; TGI (TK-10 renal): > 10 µM; TGI (U251 CNS): > 10 µM; TGI (UACC-257 melanoma): > 10 µM; TGI (UACC-62 melanoma): > 10 µM

Q: With `COC(=O)CC1C(C)(C)C(=O)C2CC3=C4CC(=O)OC(c5ccoc5)C4(C)CCC3C1(C)C2=O` (stereo unspecified) as the molecule, how does the TGI (786-0 renal) read?
A: The TGI was greater than 100 µM.

Q: What about the TGI (A498 renal) of the same molecule?
A: Its TGI is greater than 100 µM.

Q: What about the TGI (A549 NSCLC) of the same molecule?
A: Its TGI is greater than 100 µM.

Q: And the TGI (ACHN renal)?
A: Its TGI is greater than 100 µM.

Q: What about the TGI (BT-549 breast) of the same molecule?
A: Its TGI is greater than 100 µM.

Q: What about the TGI (CAKI-1 renal) of the same molecule?
A: Its TGI is greater than 100 µM.

Q: What about the TGI (CCRF-CEM leukemia) of the same molecule?
A: The TGI was greater than 100 µM.

Q: And the TGI (COLO 205 colon)?
A: Its TGI is greater than 100 µM.

Q: And the TGI (DU-145 prostate)?
A: Its TGI is greater than 100 µM.

Q: And the TGI (EKVX NSCLC)?
A: Its TGI is greater than 100 µM.

Q: And the TGI (HCC-2998 colon)?
A: The TGI was greater than 100 µM.

Q: And the TGI (HCT-116 colon)?
A: The TGI was greater than 100 µM.

Q: And the TGI (HCT-15 colon)?
A: The TGI was greater than 100 µM.

Q: What about the TGI (HL-60(TB) leukemia) of the same molecule?
A: Its TGI is greater than 100 µM.

Q: What about the TGI (HOP-62 NSCLC) of the same molecule?
A: The TGI was greater than 100 µM.

Q: And the TGI (HOP-92 NSCLC)?
A: Its TGI is greater than 100 µM.

Q: And the TGI (HS 578T breast)?
A: Its TGI is greater than 100 µM.

Q: What about the TGI (HT29 colon) of the same molecule?
A: Its TGI is greater than 100 µM.

Q: And the TGI (IGROV1 ovarian)?
A: Its TGI is greater than 100 µM.

Q: What about the TGI (K-562 leukemia) of the same molecule?
A: The TGI was greater than 100 µM.

Q: What about the TGI (KM12 colon) of the same molecule?
A: The TGI was greater than 100 µM.

Q: What about the TGI (LOX IMVI melanoma) of the same molecule?
A: Its TGI is greater than 100 µM.

Q: What about the TGI (M14 melanoma) of the same molecule?
A: The TGI was greater than 100 µM.

Q: And the TGI (MALME-3M melanoma)?
A: Its TGI is greater than 100 µM.

Q: And the TGI (MCF7 breast)?
A: Its TGI is greater than 100 µM.

Q: What about the TGI (MDA-MB-231 breast) of the same molecule?
A: The TGI was greater than 100 µM.

Q: What about the TGI (MDA-MB-435) of the same molecule?
A: Its TGI is greater than 100 µM.

Q: And the TGI (MDA-N)?
A: Its TGI is greater than 100 µM.

Q: What about the TGI (MOLT-4 leukemia) of the same molecule?
A: The TGI was greater than 100 µM.

Q: What about the TGI (NCI-H226 lung) of the same molecule?
A: Its TGI is greater than 100 µM.

Q: What about the TGI (NCI-H23 lung) of the same molecule?
A: Its TGI is greater than 100 µM.

Q: What about the TGI (NCI-H460 lung) of the same molecule?
A: Its TGI is greater than 100 µM.

Q: And the TGI (NCI-H522 lung)?
A: The TGI was greater than 100 µM.

Q: And the TGI (NCI/ADR-RES ovarian)?
A: Its TGI is greater than 100 µM.

Q: And the TGI (OVCAR-3 ovarian)?
A: The TGI was greater than 100 µM.

Q: And the TGI (OVCAR-4 ovarian)?
A: The TGI was greater than 100 µM.

Q: What about the TGI (OVCAR-5 ovarian) of the same molecule?
A: The TGI was greater than 100 µM.

Q: What about the TGI (OVCAR-8 ovarian) of the same molecule?
A: Its TGI is greater than 100 µM.

Q: What about the TGI (PC-3 prostate) of the same molecule?
A: The TGI was greater than 100 µM.

Q: What about the TGI (RPMI-8226 leukemia) of the same molecule?
A: Its TGI is greater than 100 µM.

Q: What about the TGI (RXF 393 renal) of the same molecule?
A: The TGI was greater than 100 µM.

Q: And the TGI (SF-268 CNS)?
A: Its TGI is greater than 100 µM.

Q: And the TGI (SF-295 CNS)?
A: The TGI was greater than 100 µM.

Q: And the TGI (SF-539 CNS)?
A: The TGI was greater than 100 µM.

Q: And the TGI (SK-MEL-2 melanoma)?
A: The TGI was greater than 100 µM.

Q: And the TGI (SK-MEL-28 melanoma)?
A: The TGI was greater than 100 µM.

Q: What about the TGI (SK-MEL-5 melanoma) of the same molecule?
A: The TGI was greater than 100 µM.

Q: What about the TGI (SK-OV-3 ovarian) of the same molecule?
A: Its TGI is greater than 100 µM.

Q: What about the TGI (SN12C renal) of the same molecule?
A: The TGI was greater than 100 µM.

Q: What about the TGI (SNB-19 CNS) of the same molecule?
A: Its TGI is greater than 100 µM.

Q: What about the TGI (SNB-75 CNS) of the same molecule?
A: The TGI was greater than 100 µM.

Q: And the TGI (SR leukemia)?
A: Its TGI is greater than 100 µM.

Q: What about the TGI (SW-620 colon) of the same molecule?
A: Its TGI is greater than 100 µM.

Q: And the TGI (T-47D breast)?
A: Its TGI is greater than 100 µM.

Q: And the TGI (TK-10 renal)?
A: Its TGI is greater than 100 µM.

Q: And the TGI (U251 CNS)?
A: Its TGI is greater than 100 µM.

Q: What about the TGI (UACC-257 melanoma) of the same molecule?
A: The TGI was greater than 100 µM.

Q: What about the TGI (UACC-62 melanoma) of the same molecule?
A: The TGI was greater than 100 µM.
